The values below come from ChEMBL document CHEMBL4732263 (Bioorg Med Chem, 2021).

A short description of data set [1]: Plasma clearance in Balb/C mouse at 3.5 mg/kg, iv up to 24 hrs by LC-MS analysis. Type of data set: ADME, organism-based.
Data set [2] is described as follows: Volume of distribution at steady state in Balb/C mouse plasma at 3.5 mg/kg, iv up to 24 hrs by LC-MS analysis. Type of data set: ADME, organism-based. As to conditions: read-out: Vdss.
The nature of data set [3]: AUC(0 to infinity) in Sprague-Dawley rat plasma at 2.6 mg/kg, iv up to 24 hrs by LC-MS analysis. Type of data set: ADME, organism-based. Set-up: route intravenous, dose 2.6 mg/kg, time <=24.
The nature of data set [4]: in vitro. The following applies: Balb/C, mouse, plasma; at 1 µg/mL.
Data set [5] can be described thus: Volume of distribution at steady state in Balb/C mouse blood at 3.5 mg/kg, iv up to 24 hrs by LC-MS analysis. In kind it is ADME, organism-based. As to conditions: whole blood, read-out: Vdss.
For data set [6] the following is noted: mouse, microsomes, 1 h, 1 µM.
A short description of data set [7]: in vitro. As to conditions: mouse, liver microsomes. In general terms: Liver microsomes are a subcellular fraction often used to study metabolism.
A short description of data set [8]: in vitro. As to conditions: human, liver microsomes.
A short description of data set [9]: Volume of distribution at steady state in Sprague-Dawley rat blood at 2.6 mg/kg, iv up to 24 hrs by LC-MS analysis. In kind it is ADME, organism-based. As to conditions: whole blood, read-out: Vdss.
Another data set in a line: cells. The following applies: Homo sapiens, HEK293, 10 min.
The nature of data set [10]: Drug excretion in Sprague-Dawley rat urine at 2.6 mg/kg, iv up to 24 hrs by LC-MS analysis. In kind it is ADME, organism-based. The following applies: read-out: Drug excretion.
Data set [11] is described as follows: Apparent half life in Balb/C mouse at 3.5 mg/kg, iv up to 24 hrs by LC-MS analysis. In kind it is ADME, organism-based. The following applies: in vivo, read-out: t1/2(app) (converted).
Data set [12] can be described thus: in vitro. The following applies: Balb/C, mouse, plasma; at 1 µg/mL. The source holds these as a separate data set.
The conditions of data set [13]: mouse, blood, 2 h; at 1 µg/mL.
Data set [14] in a line: Clearance in Sprague-Dawley rat renal blood at 2.6 mg/kg, iv up to 24 hrs by LC-MS analysis. In kind it is ADME, organism-based. The following applies: whole blood.
A short description of data set [15]: Half life in Sprague-Dawley rat at 2.6 mg/kg, iv up to 24 hrs by LC-MS analysis. In kind it is ADME, organism-based. As to conditions: in vivo.
The nature of data set [16]: Volume of distribution at steady state in Sprague-Dawley rat plasma at 2.6 mg/kg, iv up to 24 hrs by LC-MS analysis. In kind it is ADME, organism-based. The following applies: read-out: Vdss.
The nature of data set [17]: Clearance in Sprague-Dawley rat blood at 2.6 mg/kg, iv up to 24 hrs by LC-MS analysis. In kind it is ADME, organism-based. The following applies: whole blood.
A short description of data set [18]: in vitro. As to conditions: mouse, liver microsomes. This is another data set of the same source.
A short description of data set [19]: AUC(0 to infinity) in Balb/C mouse plasma at 3.5 mg/kg, iv up to 24 hrs by LC-MS analysis. Set-up: route intravenous, dose 3.5 mg/kg, time <=24. Type of data set: ADME, organism-based.
The next data set in a line: in vivo. As to conditions: Balb/C, mouse, po.
Data set [20] is described as follows: in vitro. As to conditions: human, liver microsomes. The source holds these as a separate data set.
The conditions of data set [21]: human, microsomes, 1 h, 1 µM.
The target of data set [22] is Sodium channel protein type 5 subunit alpha (Homo sapiens, UniProt Q14524).
The nature of data set [23]: Clearance in Balb/C mouse blood at 3.5 mg/kg, iv up to 24 hrs by LC-MS analysis. Type of data set: ADME, organism-based. The following applies: whole blood.
Data set [24] is described as follows: Plasma clearance in Sprague-Dawley rat at 2.6 mg/kg, iv up to 24 hrs by LC-MS analysis. In kind it is ADME, organism-based.
Data set [25] in a line: physchem. As to conditions: octanol/water, pH 7.4.
Data set [26] is described as follows: physchem. The following applies: PBS, pH 6.5, pH 6.5.
The nature of data set [27]: physchem. The following applies: HCl, pH 2, pH 2.
For data set [28] the following is noted: octanol/water, pH 7.4.

Values after ≈ are worked out from the molar mass of the structure shown. Where only a bound is given, the exact number is not on record here.

Sequence of Sodium channel protein type 5 subunit alpha (Q14524 whole entry): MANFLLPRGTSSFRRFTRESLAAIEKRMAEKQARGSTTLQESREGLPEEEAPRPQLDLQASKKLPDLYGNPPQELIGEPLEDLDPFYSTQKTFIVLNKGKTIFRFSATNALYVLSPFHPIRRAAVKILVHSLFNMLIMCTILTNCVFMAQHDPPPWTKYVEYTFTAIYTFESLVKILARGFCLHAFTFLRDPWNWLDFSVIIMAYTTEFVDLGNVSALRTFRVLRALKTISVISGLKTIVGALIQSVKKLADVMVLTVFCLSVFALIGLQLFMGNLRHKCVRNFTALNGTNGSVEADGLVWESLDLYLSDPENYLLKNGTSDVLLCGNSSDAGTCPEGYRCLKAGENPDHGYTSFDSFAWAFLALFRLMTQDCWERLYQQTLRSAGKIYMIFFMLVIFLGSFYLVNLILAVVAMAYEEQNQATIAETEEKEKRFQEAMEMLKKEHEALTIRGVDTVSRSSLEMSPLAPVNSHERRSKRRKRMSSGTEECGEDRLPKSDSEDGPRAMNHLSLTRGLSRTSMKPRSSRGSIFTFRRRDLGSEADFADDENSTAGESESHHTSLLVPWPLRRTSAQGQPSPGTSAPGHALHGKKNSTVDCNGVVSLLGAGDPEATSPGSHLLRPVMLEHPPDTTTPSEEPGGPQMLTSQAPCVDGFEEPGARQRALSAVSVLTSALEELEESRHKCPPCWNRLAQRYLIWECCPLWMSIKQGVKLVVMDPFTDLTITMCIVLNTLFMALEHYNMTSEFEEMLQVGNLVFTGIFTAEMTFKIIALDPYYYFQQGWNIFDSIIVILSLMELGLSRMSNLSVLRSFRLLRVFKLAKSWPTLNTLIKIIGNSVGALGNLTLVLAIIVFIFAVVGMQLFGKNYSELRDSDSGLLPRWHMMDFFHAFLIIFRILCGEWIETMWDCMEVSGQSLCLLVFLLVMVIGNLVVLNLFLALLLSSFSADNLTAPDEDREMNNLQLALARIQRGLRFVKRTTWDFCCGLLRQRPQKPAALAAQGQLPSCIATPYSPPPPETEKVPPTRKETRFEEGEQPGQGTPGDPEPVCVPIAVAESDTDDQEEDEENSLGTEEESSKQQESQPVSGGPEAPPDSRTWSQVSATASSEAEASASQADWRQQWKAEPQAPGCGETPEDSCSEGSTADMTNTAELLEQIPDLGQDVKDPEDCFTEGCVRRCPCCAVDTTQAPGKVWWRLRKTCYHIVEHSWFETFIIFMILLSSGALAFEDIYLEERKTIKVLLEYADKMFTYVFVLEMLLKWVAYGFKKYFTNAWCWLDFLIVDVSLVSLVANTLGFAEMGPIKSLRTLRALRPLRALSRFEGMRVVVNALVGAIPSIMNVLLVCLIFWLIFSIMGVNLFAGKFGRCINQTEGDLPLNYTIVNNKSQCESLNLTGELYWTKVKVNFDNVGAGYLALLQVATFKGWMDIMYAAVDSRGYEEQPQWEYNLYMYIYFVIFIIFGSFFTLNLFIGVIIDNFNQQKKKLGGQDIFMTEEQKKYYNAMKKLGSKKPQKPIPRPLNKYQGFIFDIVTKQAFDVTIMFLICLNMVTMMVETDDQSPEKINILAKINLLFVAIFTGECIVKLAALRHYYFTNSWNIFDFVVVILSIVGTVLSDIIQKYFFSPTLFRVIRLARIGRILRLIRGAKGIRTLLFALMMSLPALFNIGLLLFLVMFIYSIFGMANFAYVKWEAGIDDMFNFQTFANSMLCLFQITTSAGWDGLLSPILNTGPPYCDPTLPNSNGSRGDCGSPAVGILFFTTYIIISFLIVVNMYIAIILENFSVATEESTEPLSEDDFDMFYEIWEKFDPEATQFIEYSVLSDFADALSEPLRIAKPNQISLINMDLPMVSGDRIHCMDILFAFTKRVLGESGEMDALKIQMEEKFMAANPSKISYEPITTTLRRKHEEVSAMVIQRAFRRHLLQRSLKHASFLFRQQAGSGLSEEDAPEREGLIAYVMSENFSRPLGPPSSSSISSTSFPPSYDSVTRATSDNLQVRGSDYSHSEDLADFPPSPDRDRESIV

For `N=C(N)NC(=O)c1nc(-c2cc3ccccc3o2)c(N)nc1N`, the clearance (usually a measure of how efficiently the substance is removed, as volume per time) in [1] turned out to be 114 mL/min/kg; in data set [17] it was 44.7 mL/min/kg; in data set [23] it was 60 mL/min/kg; in data set [24], 87.7 mL/min/kg. Also, the Vd in data set [2] stood at 4.1 L/kg; in data set [5], 2.2 L/kg; in [9], 8.9 L/kg; in data set [16] it was 17.5 L/kg. For the same molecule, the AUC(0-inf) in data set [3] and in data set [19] was 1.6 µM·h in each case. The free fraction (fraction unbound) (commonly the share of the substance not bound to proteins or other matrix) at […], 1 ug/ml in the data set “in vitro [4]” is 0.06. Moreover, the CL free in data set [6] worked out at 167 µL/min/mg; in data set [21], 84 µL/min/mg. For the same molecule, the intrinsic metabolic clearance (microsomal CLint) (as a rule, the capacity of the preparation to metabolise the compound, expressed as a volume cleared per time) at 1 h, 1 µM in “in vitro [7]” came out at 106 µL/min/mg; in “in vitro [20]”, 53 µL/min/mg. Also, the values for the half-life at 1 h, 1 µM in the data set “in vitro [8]” and in the data set “in vitro [18]” were 33 min and 16 min, respectively. Further, the IC50 (in the data set “cells”; in [22]) was 22 µM in each case. In addition, the dose excreted at 24 h in data set [10] was found to be 12.5%. The half-life in data set [11] was 43.8 min; in data set [15], 294 min. Further, the metabolised at 4 h, 1 ug/ml in the data set “in vitro [12]” is below 6%. In data set [13], the Stabilty result was “Unstable”. The same molecule had a CL renal at 24 h in data set [14] of 5.6 mL/min/kg. In addition, the bioavailability (usually dose-corrected exposure relative to a reference, in per cent) at 24 h in the data set “in vivo” is below 5%.

Turning to `N=C(N)NC(=O)c1nc(-c2ccco2)c(N)nc1N`, the CL free in data set [6] stood at 245 µL/min/mg; in [21], 55 µL/min/mg. Besides, the microsomal CLint at 1 h, 1 µM was 224 µL/min/mg in the data set “in vitro [7]” and 50 µL/min/mg in the data set “in vitro [20]”. Moreover, the log distribution coefficient (logD) (in general, lipophilicity at a set pH, counting ionised and neutral species) in the data set “physchem [25]” was found to be 1.4. The half-life at 1 h, 1 µM in the data set “in vitro [8]” amounted to 35 min; in the data set “in vitro [18]”, 7.7 min. Also, the solubility (kinetic) (as a rule, solubility judged after dilution from a stock solution rather than from solid) in “physchem [26]” is 25 µg/mL (≈ 95.7 µM); in the data set “physchem [27]”, above 100 µg/mL.

`N=C(N)NC(=O)c1nc(-c2cc3ccccc3s2)c(N)nc1N`: the figures for the CL free in data set [6] and in data set [21] were 417 µL/min/mg and 41 µL/min/mg, respectively. Further, the microsomal CLint at 1 h, 1 µM in “in vitro [7]” turned out to be 252 µL/min/mg; in the data set “in vitro [20]” it was 25 µL/min/mg. In the data set “physchem [25]”, this molecule returned a pH-dependent lipophilicity (logD) of 2.9. Besides, the half-life at 1 h, 1 µM in “in vitro [8]” worked out at 68 min; in “in vitro [18]” it was 7 min. The solubility (kinetic) is 12.5 µg/mL (≈ 38.2 µM) in the data set “physchem [26]” and 50 µg/mL (≈ 153 µM) in the data set “physchem [27]”.

Take `N=C(N)NC(=O)c1nc(-c2cc3ccccc3s2)c(N2CCCCCC2)nc1N`: the results for the CL free in [6] and in data set [21] were 1283 µL/min/mg and 433 µL/min/mg, respectively. Further, the microsomal CLint at 1 h, 1 µM was 83 µL/min/mg in the data set “in vitro [7]” and 28 µL/min/mg in “in vitro [20]”. The molecule also showed a logD in the data set “physchem [25]” above 5.3. For the same molecule, the half-life at 1 h, 1 µM in the data set “in vitro [8]” is 62 min; in the data set “in vitro [18]” it was 21 min. Besides, the kinetic solubility worked out at 3.1 µg/mL (≈ 7.57 µM) in the data set “physchem [26]” and 12.5 µg/mL (≈ 30.5 µM) in the data set “physchem [27]”.

Turning to `N=C(N)NC(=O)c1nc(-c2cncnc2)c(N2CCCCCC2)nc1N`, the CL free amounted to 27 µL/min/mg in data set [6] and 32 µL/min/mg in [21]. Further, the microsomal CLint at 1 h, 1 µM turned out to be 17 µL/min/mg in “in vitro [7]” and 20 µL/min/mg in the data set “in vitro [20]”. Besides, the half-life at 1 h, 1 µM in “in vitro [8]” amounted to 86 min; in “in vitro [18]”, 100 min. The solubility (kinetic) is 12.5 µg/mL (≈ 35.2 µM) in “physchem [26]” and above 100 µg/mL in “physchem [27]”. The same molecule gave a pH-dependent lipophilicity (logD) in [28] of 2.8.

As for `N=C(N)NC(=O)c1nc(-c2ccco2)c(N2CCCCCC2)nc1N`, the CL free in data set [6] and in [21] was 687 µL/min/mg throughout. In addition, the intrinsic clearance (microsomal CLint) at 1 h, 1 µM in the data set “in vitro [7]” was determined as 138 µL/min/mg; in “in vitro [20]” it was 35 µL/min/mg. Also, the figures for the half-life at 1 h, 1 µM in the data set “in vitro [8]” and in the data set “in vitro [18]” were 50 min and 13 min, respectively. In addition, the solubility (kinetic) in the data set “physchem [26]” came to 6.3 µg/mL (≈ 18.3 µM); in “physchem [27]”, 50 µg/mL (≈ 146 µM).
